From patent EP0891975A1 (priority 1996, dated 1997)
Read-outs that look alike come from different tables or passages of the source.

What was measured:
[1] = test system: Larvae of Plutella xylostella; test: Insecticidal effect on larvae of Plutella xylostella (cabbage leaf disc dip); assay type: in vivo; details: foliar, 96 h, read-out: Death Rate (%)
Experimental: The agricultural and horticultural pesticide of the present invention (a wettable powder) was obtained in accordance with Formulation Example 1 and diluted with water to prepare a suspension having a prescribed concentration. A disc (6 cm in diameter) cut out of a cabbage leaf was soaked in the suspension for 1 minute, air-dried, and placed in a plastic cup (inner diameter: 7 cm). Five 3-instar larvae of Plutella xylostella were put in the cup (duplicates at one concentration). Four days later, the death and agony of the larvae were examined to obtain a death rate (%) taking an agonizing insect as a 1/2 dead insect. The results obtained are shown in Table 5 (the compound numbers in Table 5 correspond to those in Tables 1, 2 and 3).

[2] = test system: Rice Blast Fungus (Magnaporthe grisea); assay type: in vivo; details: 250 ppm, 10 ml/pot foliar spray, rice (Akinishiki), lesions per leaf counted vs untreated pot after 24 hours moist chamber and 7 days greenhouse
[3] = test system: Larvae of Nilaparvata lugens; test: Insecticidal effect on larvae of Nilaparvata lugens (spray on rice seedling in glass cylinder); assay type: in vivo; details: 120 h, read-out: Death Rate (%)
Experimental: A rice seedling was setted in a glass cylinder (inner diameter: 3 cm; length: 17 cm), and five 4th instar larvae of Nilaparvata lugens were set free therein. The agricultural and horticultural pesticide of the present invention (an emulsifiable concentrate) was prepared in accordance with Formulation Example 3 and diluted with water, and 0.5 ml of the resulting emulsion was sprayed in the cylinder by means of a spray tower (manufactured by Mizuho Rika) (duplicates at 1 concentration). Five days after the treatment, the mortality and agony of the larvae were examined to obtain a death rate (%) taking an agonizing insect as a 1/2 dead insect. The results obtained are shown in Table 4 (the compound numbers in Table 4 correspond to those in Tables 1, 2 and 3).

[4] = Acute toxicity in mice in single oral administration; details: mouse, in vivo, 30 mg/kg, 30 mg-active ingredient/kg, five 6-week-old CD-1 male mice, 7 days after administration, read-out: Death Rate (%)
Experimental: Acute toxicity (p.o.) in mice of compound Nos. 8, 10, 13, 22, 23, 38, 42, and 52 was examined as follows. For comparison, compounds (IV), (V) and (VI) disclosed in JP-A-2-62876 were tested similarly.
Compound Nos. 8, 10, 22, 23, 38, and 42 (30 mg each) were each suspended in 10 ml of a 0.5% CMC-Na aqueous solution. Compound Nos. 13 and 52 and compounds (IV), (V) and (VI) (30 mg each) were each suspended in 10 ml of a 0.5% tragacanth gum aqueous solution. The suspension was orally given to a group each consisting of five 6-week-old CD-1 male mice (available from Charles River) at a dose of 10 ml-suspension per kg of the body weight. The number of dead mice was counted after 7 days from the administration to obtain a death rate.

[5] = test system: Tomato Late Blight Fungus (Phytophthora infestans); assay type: in vivo; details: 250 ppm, 10 ml per pot foliar spray, tomato (Red Cherry), degree of disease vs untreated pot after 24 hours moist chamber and 4 days greenhouse
[6] = 500 ppm, emulsifiable concentrate diluted with water, 4th instar larvae, five days after treatment, agonizing insect counted as 1/2 dead
[7] = 500 ppm, wettable powder suspension, 3-instar larvae, four days later, agonizing insect counted as 1/2 dead

SMILES	mortality at 500 ppm [1]	Control Value (%) [2]	mortality at 500 ppm [3]	mortality at 168 h [4]	Control Value (%) [5]	mortality at 500 ppm [3, 6]	mortality at 500 ppm [1, 7]
Cc1nn(C)c(C(=O)NCc2ccc(Oc3cccc(C(F)(F)F)c3)nc2)c1C [Compound No. 10, N-[6-(3-Trifluoromethylphenoxy)-3-pyridylmethyl]-1,3,4-trimethyl-5-pyrazolecarboxamide]	100%	89%	100%	0%	100%	–	–
Cc1nn(C)c(C(=O)NCc2ccc(Oc3cccc(Cl)c3)nc2)c1C [compound 8]	–	–	–	0%	100%	100%	–
CCc1nn(C)c(C(=O)NCc2ccc(Oc3cccc(C(F)(F)F)c3)nc2)c1Cl [compound 13]	–	87%	–	0%	85%	100%	100%
Cc1nn(C)c(C(=O)NCc2ccc(Oc3ccc4ccccc4c3)nc2)c1Cl [compound 22]	–	–	–	0%	100%	–	–
Cc1nn(C)c(C(=O)NCc2ccc(Oc3ccc4ccccc4c3)nc2)c1Br [compound 23]	–	–	–	0%	–	–	–
CCc1nn(C)c(C(=O)NCc2ccc(Oc3ccc4ccccc4c3)nc2)c1Cl [compound 38]	–	100%	–	0%	–	90%	90%
Cn1nc2c(c1C(=O)NCc1ccc(Oc3ccc4ccccc4c3)nc1)CCC2 [compound 42]	–	–	–	0%	100%	90%	100%
COc1c(C)nn(C)c1C(=O)N(Cc1ccc(Oc2ccc3ccccc3c2)nc1)C(C)=O [compound 52]	–	–	–	0%	100%	90%	–
